Data from the supplement of paper PMC10784567.
± gives the standard deviation of the averaged measurements.

Compound: C=C1C[C@H]2C=Nc3cc(OCCCCCOc4cc5c(cc4OC)C(=O)N4CC(=C)C[C@H]4C=N5)c(OC)cc3C(=O)N2C1 [SG2057]
Assay: absolute IC50 (cell viability, CellTiter-Glo); higher = less potent
Details: treatment time: 3 days
Description: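 Large cancer cell line panel screens in 384-well plates. Cells were treated for 3 days with a 9-point dose titration of the free PBD dimer SG2057; viability was read with CellTiter-Glo. Absolute IC50 came from a four-parameter Hill fit normalised to the median of vehicle (DMSO) wells. Several independent screens (projects) per cell line are averaged; values in µM, lowest-dose floor about 1.524e-5 µM.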

Point of comparison: RC-K8, “absolute IC50” value 0.667 ± 1 nM. Against it:
- NCI-H1975 — 3-fold higher, 2 nM
- NCI-H1975 (MB) — within error, 0.206 nM
- NCI-H1993 — within error, 0.564 nM
- NCI-H2009 — within error, 1.1 ± 0.98 nM
- NCI-H2023 — within error, 0.142 ± 0.27 nM
- NCI-H2052 — within error, 0.717 nM
- NCI-H2073 — 43-fold higher, 28.9 nM
- NCI-H2106 — within error, 1.36 ± 0.71 nM
- NCI-H2110 — within error, 0.296 ± 0.18 nM
- NCI-H2122 — 4.5-fold higher, 2.98 ± 1.3 nM
- NCI-H2126 — 5.9-fold higher, 3.94 nM
- NCI-H2135 — 8.4-fold higher, 5.6 nM
- NCI-H2170 — within error, 0.646 ± 0.011 nM
- NCI-H2171 — within error, 0.742 ± 1.3 nM
- NCI-H2228 — within error, 0.279 nM
- NCI-H2347 — within error, 1.14 ± 2.7 nM
- NCI-H2373 — within error, 0.217 ± 0.18 nM
- NCI-H2405 — within error, 0.552 ± 0.38 nM
- NCI-H2444 — 8.2-fold higher, 5.49 nM
- NCI-H2452 — within error, 2.95 ± 3 nM
- NCI-H2461 — within error, 0.545 ± 0.89 nM
- NCI-H2595 — within error, 2.2 ± 1.9 nM
- NCI-H2722 — within error, 0.343 nM
- NCI-H2731 — within error, 1.29 ± 1.9 nM
- NCI-H2803 — 5.8-fold higher, 3.86 nM
- NCI-H2804 — within error, 0.718 ± 0.98 nM
- NCI-N87 — within error, 0.403 ± 0.11 nM
- NCI-N417 — within error, 0.737 nM
- NJG — within error, 0.151 nM
- NTERA-2 — lower, < 0.0152 nM
- NUGC-4 — within error, 0.443 nM
- OAW28 — 7.9-fold higher, 5.25 nM
- OAW42 — within error, 1.38 ± 1.6 nM
- OCI-AML5 — within error, 0.0729 ± 0.11 nM
- OCI-LY-10 — lower, < 0.0152 nM
- OCI-M1 — within error, 0.227 ± 0.13 nM
- OCI-M2 — within error, 0.275 ± 0.0079 nM
- OCUM-1 — within error, 0.529 ± 0.32 nM
- OE19 — 3.3-fold higher, 2.23 nM
- OE21 — within error, 0.259 nM
- OE33 — within error, 0.0612 nM
- ONCO-DG-1 — within error, 1.36 ± 2.2 nM
- ONS-76 — within error, 0.487 nM
- OPM-2 — within error, 1.63 ± 1.2 nM
- OUMS-23 — within error, 1.71 ± 0.89 nM
- OV56 — within error, 0.195 ± 0.3 nM
- OV-90 — within error, 2.13 ± 1.3 nM
- OVCA 420 — within error, 2.24 ± 2.3 nM
- OVCAR433 — within error, 0.462 ± 0.47 nM
- OVCAR-4 — within error, 1.33 ± 0.49 nM
- OVCAR-5 — within error, 1.08 ± 0.3 nM
- OVTOKO — within error, 0.557 ± 0.55 nM
- OvCA 429 — within error, 0.139 ± 0.067 nM
- OvCA 432 — within error, 1.08 ± 0.64 nM
- PA-1 — within error, 0.0473 ± 0.056 nM
- PA-TU-8988S — 78-fold higher, 52.1 nM
- PAN 02 — within error, 1.39 nM
- PAN 02 X1 — within error, 0.839 nM
- PC-9 — 8.2-fold higher, 5.48 nM
- PE/CA-PJ15 — within error, 0.216 nM
- PEO1 — within error, 0.538 ± 0.19 nM
- PK-1 — within error, 1.53 ± 1.3 nM
- PK-45H — within error, 1.2 ± 0.94 nM
- PK-45P — 9.4-fold higher, 6.29 ± 1.9 nM
- PL45 — within error, 0.402 nM
- PL-21 — within error, 1.38 ± 1.2 nM
- PLC/PRF/5 — 12-fold higher, 8.3 nM
- PMF-ko14 — within error, 2.86 ± 5.1 nM
- Panc 02.03 — within error, 2.51 ± 3.8 nM
- Panc 05.04 — within error, 1.68 ± 0.4 nM
- Panc 08.13 — 4-fold higher, 2.7 nM
- Panc 10.05 — within error, 0.383 ± 0.11 nM
- Pfeiffer — within error, 1.21 ± 2 nM
- QGP-1 — 8.2-fold higher, 5.47 ± 0.39 nM
- RCM-1 — within error, 3.33 ± 5.4 nM
- RERF-GC-1B — within error, 1.07 ± 1 nM
- RERF-LC-KJ — within error, 1.65 ± 2.5 nM
- RERF-LC-MS — within error, 0.212 ± 0.15 nM
- RERF-LC-OK — within error, 0.729 ± 1 nM
- RKO-E6 — within error, 1.32 ± 2.1 nM
- RL95-2 — 2.8-fold higher, 1.9 nM
- RMUG-S — 2.9-fold higher, 1.92 ± 0.051 nM
- RPMI 2650 — within error, 0.539 ± 0.27 nM
- RT4 — 3.5-fold higher, 2.35 nM
- RT-112 — within error, 1.53 ± 2.8 nM
- RVH-421 — within error, 0.569 nM
- Reh — within error, 0.757 nM
- Renca — within error, 10.3 ± 12 nM
- S-117 — 3.4-fold higher, 2.29 nM
- SBC-7 — within error, 0.53 nM
- SCLC-21H — within error, 0.788 nM
- SCLC-22H — within error, 0.905 nM
- SF268 — within error, 0.424 ± 0.77 nM
- SF539 — within error, 0.27 ± 0.54 nM
- SH-SY5Y — within error, 0.142 nM
- SIMA — within error, 0.863 nM
- SISO — within error, 0.153 nM
- SJCRH30 — within error, 0.422 nM
- SJCRH30 (RC13) — within error, 0.187 nM
- SJSA-1 — within error, 0.0954 nM
- SK-BR-3 — within error, 0.69 ± 0.71 nM
- SK-CO-1 — within error, 0.201 ± 0.19 nM
- SK-HEP-1 — within error, 0.205 nM
- SK-MEL-1 — within error, 1.11 ± 0.28 nM
- SK-MEL-2 — within error, 1.16 ± 0.55 nM
- SK-MEL-31 — 5.7-fold higher, 3.78 nM
- SK-N-AS — within error, 0.187 nM
- SK-N-BE(2) — within error, 1.64 nM
- SK-N-DZ — 7.6-fold higher, 5.04 nM
- SK-N-FI — within error, 8.79 ± 11 nM
- SK-N-SH — within error, 0.114 nM
- SK-UT-1B — lower, < 0.0152 nM
- SKG-II — within error, 0.0743 nM
- SKG-IIIa — 27-fold higher, 17.7 nM
- SKG-IIIb — 2.7-fold higher, 1.79 nM
- SM1 — within error, 0.444 nM
- SNB-19 — within error, 0.187 nM
- SNG-M — within error, 0.285 ± 0.16 nM
- SNU-1 — 2.8-fold higher, 1.89 nM
- SNU-16 — within error, 0.344 ± 0.1 nM
- SNU-182 — within error, 1.36 ± 1.5 nM
- SNU-216 — within error, 1.57 ± 2.9 nM
- SNU-387 — 8.6-fold higher, 5.76 nM
- SNU-449 — 8.8-fold higher, 5.84 nM
- SNU-475 — within error, 2.56 ± 3.8 nM
- SNU-484 — within error, 0.327 ± 0.11 nM
- SNU-601 — within error, 0.0897 ± 0.046 nM
- SNU-620 — within error, 2.3 ± 3.1 nM
- SNU-638 — within error, 0.137 ± 0.046 nM
- SNU-668 — within error, 0.573 nM
- SNU-719 — within error, 3.72 ± 4 nM
- SNU-C1 — 5.1-fold higher, 3.4 ± 0.35 nM
- SU-DHL-6 — within error, 0.536 ± 0.73 nM
- SU.86.86 — within error, 0.733 ± 0.48 nM
- SUM 52PE — within error, 2.62 ± 1.5 nM
- SUM 149PT — within error, 1.68 ± 1.6 nM
- SUM 159PT — within error, 0.681 nM
- SW 403 — 5.5-fold higher, 3.64 ± 1.6 nM
- SW 480 — within error, 0.462 ± 0.51 nM
- SW 626 — 5.5-fold higher, 3.67 nM
- SW 780 — within error, 0.754 nM
- SW 837 — 6-fold higher, 4.01 ± 0.21 nM
- SW 900 — 4.8-fold higher, 3.18 nM
- SW 948 — within error, 3.39 ± 3.9 nM
- SW 1463 — within error, 7.83 ± 8.2 nM
- SW 1990 — within error, 0.516 ± 0.22 nM
- SiHa — within error, 1.56 nM
- T84 — within error, 2.92 ± 2.4 nM
- T98G — within error, 3.18 ± 3.7 nM
- T.T — 2.9-fold higher, 1.93 nM
- TC-1 — within error, 0.384 nM
- TC-71 — lower, < 0.0152 nM
- TK-10 — within error, 2.7 ± 2.1 nM
- TOV-21G — within error, 0.261 nM
- TRAMP-C1 — within error, 0.345 nM
- TRAMP-C2 — within error, 0.154 nM
- TYK-nu — within error, 0.113 ± 0.18 nM
- Toledo — within error, 0.279 ± 0.28 nM
- U266B1 — within error, 2.64 ± 2.4 nM
- U-2 OS — within error, 0.53 nM
- U-87 MG — 5-fold higher, 3.32 nM
- U-2932 — within error, 0.213 ± 0.23 nM
- UACC-62 — within error, 0.77 ± 0.36 nM
- UACC-257 — 3.6-fold higher, 2.41 nM
- UCSD-242l — within error, 1.29 ± 0.84 nM
- UKE-1 — within error, 0.0189 ± 0.0056 nM
- UM-RC-6 — within error, 0.651 nM
- UM-RC-7 — within error, 0.672 nM
- UM-UC-1 — within error, 0.557 nM
- UMC-11 — 22-fold higher, 14.8 nM
- VMRC-LCD — 6.4-fold higher, 4.27 nM
- VMRC-RCW — 5.6-fold higher, 3.72 nM
- VP229 — within error, 3 ± 3.4 nM
- VP267 — 7.3-fold higher, 4.86 nM
- WM-115 — within error, 0.436 ± 0.57 nM
- WSU-DLCL2 — within error, 0.358 ± 0.36 nM
- WiDr — within error, 1.38 ± 0.42 nM
- YAPC — within error, 1.16 ± 0.74 nM
- huH-1 — 3.4-fold higher, 2.28 nM
